Experimental findings from ChEMBL document CHEMBL1147744, “Discovery of two novel, small-molecule inhibitors of DNA methylation” (J Med Chem, 2006) are described below.

The target in assay [1] is DNA (cytosine-5)-methyltransferase 1 (Homo sapiens, UniProt P26358). The experiment in a line: Inhibitory activity against DNA methyl transferase in leukemic NALM6 cells. Type of assay: cell-based, NALM-6.
Assay [2] has as its target Orphan methyltransferase M.SssI (Spiroplasma monobiae, UniProt P15840). The experiment in a line: Inhibition of recombinant CpG methylase M.SssI.

Sequence of Orphan methyltransferase M.SssI (P15840 whole entry): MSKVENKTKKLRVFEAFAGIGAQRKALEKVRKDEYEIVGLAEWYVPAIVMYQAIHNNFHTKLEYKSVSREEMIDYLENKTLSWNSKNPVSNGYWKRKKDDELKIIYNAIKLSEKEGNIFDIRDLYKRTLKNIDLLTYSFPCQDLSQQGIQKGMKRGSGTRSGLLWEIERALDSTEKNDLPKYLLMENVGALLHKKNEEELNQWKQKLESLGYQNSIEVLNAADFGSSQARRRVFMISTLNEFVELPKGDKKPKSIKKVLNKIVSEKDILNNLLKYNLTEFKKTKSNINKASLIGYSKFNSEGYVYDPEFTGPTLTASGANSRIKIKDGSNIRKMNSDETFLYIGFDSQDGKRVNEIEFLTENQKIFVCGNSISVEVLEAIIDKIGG
Sequence of DNA (cytosine-5)-methyltransferase 1 (P26358 whole entry): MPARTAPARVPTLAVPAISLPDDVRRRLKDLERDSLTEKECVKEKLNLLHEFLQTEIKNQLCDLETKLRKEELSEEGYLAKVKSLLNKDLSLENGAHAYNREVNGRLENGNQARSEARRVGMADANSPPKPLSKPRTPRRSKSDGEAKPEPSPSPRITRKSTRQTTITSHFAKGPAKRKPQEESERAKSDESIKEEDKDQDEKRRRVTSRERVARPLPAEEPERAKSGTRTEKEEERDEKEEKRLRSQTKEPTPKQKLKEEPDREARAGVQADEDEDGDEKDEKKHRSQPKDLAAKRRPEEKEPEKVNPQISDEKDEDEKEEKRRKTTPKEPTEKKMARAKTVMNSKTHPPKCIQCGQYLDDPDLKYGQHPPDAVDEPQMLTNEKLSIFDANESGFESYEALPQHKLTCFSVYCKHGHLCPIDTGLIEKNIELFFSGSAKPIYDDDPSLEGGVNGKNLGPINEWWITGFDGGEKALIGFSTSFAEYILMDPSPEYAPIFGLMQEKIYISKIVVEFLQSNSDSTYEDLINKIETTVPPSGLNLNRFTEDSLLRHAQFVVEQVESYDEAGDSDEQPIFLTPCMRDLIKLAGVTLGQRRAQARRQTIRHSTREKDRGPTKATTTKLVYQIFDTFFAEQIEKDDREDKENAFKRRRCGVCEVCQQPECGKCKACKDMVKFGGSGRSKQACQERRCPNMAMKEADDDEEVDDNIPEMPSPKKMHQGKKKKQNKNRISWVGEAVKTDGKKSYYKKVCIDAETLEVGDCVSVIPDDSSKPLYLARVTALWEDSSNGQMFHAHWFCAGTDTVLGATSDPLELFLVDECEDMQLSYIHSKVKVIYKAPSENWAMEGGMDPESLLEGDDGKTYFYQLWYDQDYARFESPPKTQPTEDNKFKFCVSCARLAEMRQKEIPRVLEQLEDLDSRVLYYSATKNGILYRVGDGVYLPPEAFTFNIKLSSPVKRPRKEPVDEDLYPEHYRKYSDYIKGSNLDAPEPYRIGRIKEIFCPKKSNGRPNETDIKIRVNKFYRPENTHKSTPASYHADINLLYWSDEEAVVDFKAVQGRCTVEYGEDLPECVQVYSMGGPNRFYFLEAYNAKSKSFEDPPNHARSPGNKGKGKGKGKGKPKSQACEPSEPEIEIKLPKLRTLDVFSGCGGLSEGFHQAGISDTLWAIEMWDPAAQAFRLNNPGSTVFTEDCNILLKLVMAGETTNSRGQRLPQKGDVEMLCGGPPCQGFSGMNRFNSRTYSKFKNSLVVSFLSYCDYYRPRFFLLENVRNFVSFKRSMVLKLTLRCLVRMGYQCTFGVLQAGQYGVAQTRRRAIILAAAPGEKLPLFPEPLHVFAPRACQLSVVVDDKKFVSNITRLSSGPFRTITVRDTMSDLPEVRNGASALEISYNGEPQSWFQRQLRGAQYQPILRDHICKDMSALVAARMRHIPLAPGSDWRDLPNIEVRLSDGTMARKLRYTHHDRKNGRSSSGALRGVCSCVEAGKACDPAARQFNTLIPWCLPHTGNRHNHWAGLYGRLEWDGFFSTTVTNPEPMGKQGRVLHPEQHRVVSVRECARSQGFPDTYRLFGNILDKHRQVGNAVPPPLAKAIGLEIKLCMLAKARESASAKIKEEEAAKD

As for `Cc1ccn2c(CCc3nnc4cc(C)ccn34)nnc2c1`, the 50% inhibitory concentration (IC50) in assay [1] is 100 µM; in assay [2], 400 nM.
For `O=C(O)C(Cc1c[nH]c2ccccc12)N1C(=O)c2ccccc2C1=O` (centres undefined), in that order: 50 µM and 600 nM.
